The target in data set [1] is P-gp (MDR1) (Homo sapiens (Human), UniProt P08183). In words: MDR1 LLC-PK1 permeability assay: efflux ratio. Format: in vitro ADME. The following applies: pig. The text has this:
(§1) Final organic concentration in the assay was 1%.

Data set [2] deals with A375 cells. In words: Cellular phospho-ERK inhibition assay in A375 cells. It counts as cell-based. Particulars: Homo sapiens, A-375, A375 cells (head prints A357), 2 hours treatment, read-out: A357 cell IC50. As to the method:
A375 and H1755 cells were obtained from the American Type Culture Collection (ATCC, Rockville, MD). A375 cells were maintained in DMEM growth medium containing 10% FBS. H1755 cells were maintained in RPMI growth medium containing 10% FBS.
Cells were harvested according to standard protocols, counted and plated onto flat-bottom, 96-well tissue culture plates (Costar #3599) at 2.5×10^4 cells/well for A375 cells and 1.5×10^4 cells/well for H1755 cells in 100 μL/well of growth medium containing 10% FBS. After an overnight incubation at 37° C. with 5% CO2 cells were treated for 2 hours at 37° C., 5% CO2 with compounds prepared as a 9-point, 1:3.33 fold dilution series with final compound concentrations ranging from 66 pM-10 μM and a constant DMSO concentration of 0.25%. Control wells contained either 0.25% DMSO alone (uninhibited control) or 10 μM binimetinib (complete inhibition control). The levels of phosphorylated ERK are determined using an In Cell Western protocol: following compound incubation, growth medium was discarded, and cells were fixed with 0.4% formaldehyde in PBS for 20 minutes at room temperature. Cells were permeabilized with 100% methanol for 10 minutes at room temperature. Plates were washed with PBS containing 0.05% Tween-20 and blocked for 1 hour at room temperature with LI-COR Blocking Buffer (LI-COR Biosciences; Cat #927-40000). Plates were then incubated for 2 hours at room temperature with 50 μL of a 1:400 dilution of anti-phospho-ERK1/2 (Thr202/Tyr204) (Cell Signaling; Cat #9101) and a 1:1000 dilution of anti-GAPDH (Millipore; Cat #MAB374) in LI-COR blocking buffer containing 0.05% Tween-20. Plates were washed with PBS containing […] Tween-20 then incubated at room temperature for 1 hour with 50 μL of a 1:1000 dilution of anti-rabbit AlexaFluor 680 (Life Technologies; Cat #A21109) and a 1:1000 dilution of anti-mouse IRDye 800CW (LI-COR; Cat #926-32210) in LI-COR blocking buffer containing 0.05% Tween-20. Plates were analyzed by reading on an Odyssey CLx infrared scanner. For each well, the phospho-ERK signal was normalized to the GAPDH signal and converted to POC using the following equation:
[formula] • Where: • Xmax Average Uninhibited Controls • Xmin Average Complete Inhibition Controls IC50 values were then calculated using a 4-parameter fit in XLfit software and are provided in Table A1.

Data set [3] has as its target BCRP (Homo sapiens (Human), UniProt Q9UNQ0). Nature of the data set: BCRP MDCKII permeability assay: efflux ratio. Format: in vitro ADME. The following applies: dog.
Data set [4] has as its target full-length FLAG-tagged B-Raf(V600E) (Homo sapiens (Human), UniProt P15056, V600E). In words: BRAF V600E enzyme assay (TR-FRET competitive displacement). It counts as binding. Particulars: averaged IC50; TR-FRET tracer displacement, 60 min. As for the experimental part: A competitive displacement assay was configured for B-Raf that monitors the amount of a fluorescently-tagged “tracer” bound to B-Raf via TR-FRET from an anti-tag Eu-labeled antibody also bound to B-Raf. For full-length FLAG-tagged B-Raf(V600E), the assay mixtures consisted of 25 mM K^+HEPES, pH 7.4, 10 mM MgCl2, 0.01% Triton X-100, 1 mM DTT, 2% DMSO (from compound), 50 nM Tracer 1710 (ThermoFisher, PR9176A), 0.5 nM Eu anti-FLAG (M2)-cryptate Ab (Cisbio, 61FG2KLB) and 5 nM full-length, N-terminally FLAG-tagged B-Raf(V600E) (Origene Technologies, TP700031. Compounds were typically diluted in DMSO across an 11-point dosing range created using a 3-fold serial dilution protocol at a top dose of 10 μM. The assay was run in 384-well, polystyrene, low-volume, non-treated, white microtiter plates (Costar 4512) in a final volume of 12 μL. Low control wells included 1 μM of a potent B-Raf inhibitor as a control. The assays were incubated at ambient temperature (typically 22° C.) for 60 min and then read on a PerkinElmer EnVision microplate reader using standard TRF settings (λEx=320 nm, λEm=615 & 665 nm). The ratioed counts (665 nm/615 nm) were converted to percent of control (POC) using the following equation:
[formula] • where: • Xmax Average Uninhibited Controls • Xmin Average Background
A 4-parameter logistic model was the fit to the POC data for each compound. From that fit, the IC50 was estimated and is defined as the concentration of compound at which the best-fit curve crosses 50 POC.

Data set [5] can be described thus: MDR1 LLC-PK1 and BCRP MDCKII permeability assay: permeability coefficient (Papp). It counts as in vitro ADME.
Excerpt: as §1

Structures are written as SMILES. pIC50: −log10 of the molar value. Where a name gives a salt, the structure may show the parent alone.

Broadly, the efflux ratio is a quotient of directional permeabilities that is used to spot active efflux. What is called pIC50 is −log10 of the IC50, conventionally taken in molar units. A word on the Papp: it is the rate of passage across a membrane or cell layer, normalised by area and donor concentration. A low value points to slow passage.

Sequence of P-gp (MDR1) (P08183 whole entry, species assumed): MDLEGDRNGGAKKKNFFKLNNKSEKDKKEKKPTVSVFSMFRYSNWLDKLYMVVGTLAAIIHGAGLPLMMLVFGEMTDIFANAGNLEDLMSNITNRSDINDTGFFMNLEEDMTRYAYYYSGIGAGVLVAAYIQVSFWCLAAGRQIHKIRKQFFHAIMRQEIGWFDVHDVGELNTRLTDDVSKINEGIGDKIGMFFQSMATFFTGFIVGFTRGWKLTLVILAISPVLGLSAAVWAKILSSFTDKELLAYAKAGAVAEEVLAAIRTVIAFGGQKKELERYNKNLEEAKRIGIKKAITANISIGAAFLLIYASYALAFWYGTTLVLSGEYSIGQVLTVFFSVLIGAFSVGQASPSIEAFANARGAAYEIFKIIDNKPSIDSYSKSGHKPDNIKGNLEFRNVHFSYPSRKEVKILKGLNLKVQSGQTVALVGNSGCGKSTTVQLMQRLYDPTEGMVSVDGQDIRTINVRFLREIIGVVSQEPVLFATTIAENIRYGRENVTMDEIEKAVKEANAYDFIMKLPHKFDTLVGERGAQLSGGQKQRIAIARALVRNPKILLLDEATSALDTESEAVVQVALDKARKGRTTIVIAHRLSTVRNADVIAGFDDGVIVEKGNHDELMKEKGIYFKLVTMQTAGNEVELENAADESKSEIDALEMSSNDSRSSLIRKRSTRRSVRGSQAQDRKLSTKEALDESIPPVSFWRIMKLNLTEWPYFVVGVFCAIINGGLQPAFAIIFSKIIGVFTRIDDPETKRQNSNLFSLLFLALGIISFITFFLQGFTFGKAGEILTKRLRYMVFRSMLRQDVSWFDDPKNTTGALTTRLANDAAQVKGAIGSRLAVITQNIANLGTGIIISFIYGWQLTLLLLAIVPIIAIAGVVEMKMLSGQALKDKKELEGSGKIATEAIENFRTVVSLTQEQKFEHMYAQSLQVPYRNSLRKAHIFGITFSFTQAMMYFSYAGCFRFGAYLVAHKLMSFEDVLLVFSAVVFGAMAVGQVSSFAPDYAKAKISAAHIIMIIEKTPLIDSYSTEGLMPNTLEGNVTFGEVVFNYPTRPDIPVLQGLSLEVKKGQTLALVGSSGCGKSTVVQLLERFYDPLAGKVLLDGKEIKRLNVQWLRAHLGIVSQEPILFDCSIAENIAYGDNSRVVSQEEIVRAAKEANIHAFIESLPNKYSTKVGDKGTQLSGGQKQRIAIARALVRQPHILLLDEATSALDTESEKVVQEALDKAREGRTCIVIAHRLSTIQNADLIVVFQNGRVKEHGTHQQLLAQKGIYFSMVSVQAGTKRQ
Sequence of full-length FLAG-tagged B-Raf(V600E) (P15056 whole entry V600E): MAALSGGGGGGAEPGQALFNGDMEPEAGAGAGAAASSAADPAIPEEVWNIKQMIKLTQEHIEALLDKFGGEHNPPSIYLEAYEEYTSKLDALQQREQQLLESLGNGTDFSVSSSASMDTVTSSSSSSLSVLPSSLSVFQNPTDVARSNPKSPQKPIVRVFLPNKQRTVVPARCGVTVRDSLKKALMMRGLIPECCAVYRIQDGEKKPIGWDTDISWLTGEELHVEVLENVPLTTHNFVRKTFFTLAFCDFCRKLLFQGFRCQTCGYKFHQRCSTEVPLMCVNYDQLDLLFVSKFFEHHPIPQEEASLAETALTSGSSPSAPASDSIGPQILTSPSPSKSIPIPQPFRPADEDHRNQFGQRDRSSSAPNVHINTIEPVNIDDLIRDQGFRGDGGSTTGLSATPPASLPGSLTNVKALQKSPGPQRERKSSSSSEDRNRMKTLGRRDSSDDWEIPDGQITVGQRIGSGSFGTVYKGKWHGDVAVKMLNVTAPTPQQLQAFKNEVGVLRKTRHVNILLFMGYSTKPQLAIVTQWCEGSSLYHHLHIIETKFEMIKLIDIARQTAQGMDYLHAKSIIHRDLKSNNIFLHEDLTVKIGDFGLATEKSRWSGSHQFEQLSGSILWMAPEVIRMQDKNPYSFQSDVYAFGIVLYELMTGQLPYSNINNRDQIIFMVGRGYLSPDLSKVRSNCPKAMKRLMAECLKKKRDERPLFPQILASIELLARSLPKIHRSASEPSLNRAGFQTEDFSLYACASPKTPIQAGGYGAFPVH
Sequence of BCRP (Q9UNQ0 whole entry): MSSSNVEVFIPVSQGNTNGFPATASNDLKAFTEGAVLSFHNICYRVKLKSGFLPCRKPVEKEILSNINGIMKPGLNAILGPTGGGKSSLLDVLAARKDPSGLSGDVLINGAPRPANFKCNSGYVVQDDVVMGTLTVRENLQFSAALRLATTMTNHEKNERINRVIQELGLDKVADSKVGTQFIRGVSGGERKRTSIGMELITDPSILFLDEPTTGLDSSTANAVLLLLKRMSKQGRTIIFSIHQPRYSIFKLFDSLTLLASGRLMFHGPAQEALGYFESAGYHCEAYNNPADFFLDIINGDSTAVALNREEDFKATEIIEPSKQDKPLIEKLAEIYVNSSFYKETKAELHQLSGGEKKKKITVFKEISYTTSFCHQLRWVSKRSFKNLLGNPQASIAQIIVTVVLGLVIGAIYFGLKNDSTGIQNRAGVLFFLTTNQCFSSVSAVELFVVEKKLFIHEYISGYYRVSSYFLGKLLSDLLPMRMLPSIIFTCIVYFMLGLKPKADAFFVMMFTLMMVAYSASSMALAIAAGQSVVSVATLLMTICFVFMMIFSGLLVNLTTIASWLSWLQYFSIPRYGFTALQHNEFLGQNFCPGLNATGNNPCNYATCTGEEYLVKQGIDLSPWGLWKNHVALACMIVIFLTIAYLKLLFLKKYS

For the compound `COCC1CN(S(=O)(=O)Nc2ccc(F)c(Oc3ccc4ncn(C)c(=O)c4c3C)c2Cl)C1` [Example 115, N-(2-chloro-3-((3,5-dimethyl-4-oxo-3,4-dihydroquinazolin-6-yl)oxy)-4-fluorophenyl)-3-(methoxymethyl)azetidine-1-sulfonamide], the efflux ratio at 2 h, 1 µM in data set [1] worked out at 1.6; in data set [3] it was 1.5. Also, the pIC50 in data set [2] was 7.68; in data set [4], 8.00. The compound further had a Papp at 2 h, 1 µM in data set [5] of 28 ×10⁻⁶ cm/s.
For `Cc1c(Oc2c(F)ccc(NS(=O)(=O)N3CC(F)C3)c2Cl)ccc2ncn(C)c(=O)c12` [Example 116, N-(2-chloro-3-((3,5-dimethyl-4-oxo-3,4-dihydroquinazolin-6-yl)oxy)-4-fluorophenyl)-3-fluoroazetidine-1-sulfonamide] the same measures were 2.7, 2.1, 7.82, 8.40 and 34 ×10⁻⁶ cm/s.
For `COC1CN(S(=O)(=O)Nc2ccc(F)c(Oc3ccc4ncn(C)c(=O)c4c3C)c2Cl)C1` [Example 117, N-(2-chloro-3-((3,5-dimethyl-4-oxo-3,4-dihydroquinazolin-6-yl)oxy)-4-fluorophenyl)-3-methoxyazetidine-1-sulfonamide] the same measures were 1.5, 1.5, 7.64, 7.96 and 30 ×10⁻⁶ cm/s.
Consider `Cn1cnc2ccc(Oc3c(F)ccc(NS(=O)(=O)N4CC(F)C4)c3Cl)c(F)c2c1=O` [Example 122, N-(2-chloro-4-fluoro-3-((5-fluoro-3-methyl-4-oxo-3,4-dihydroquinazolin-6-yl)oxy)phenyl)-3-fluoroazetidine-1-sulfonamide], for which the efflux ratio at 2 h, 1 µM in data set [1] was determined as 2.3; in data set [3] it was 7.8. Moreover, the pIC50 in data set [2] is 8.52; in data set [4] it was 8.70. In data set [5], the Papp at 2 h, 1 µM was determined as 31 ×10⁻⁶ cm/s.
For `COC1CN(S(=O)(=O)Nc2ccc(F)c(Oc3ccc4ncn(C)c(=O)c4c3F)c2Cl)C1` [Example 123, N-(2-chloro-4-fluoro-3-((5-fluoro-3-methyl-4-oxo-3,4-dihydroquinazolin-6-yl)oxy)phenyl)-3-methoxyazetidine-1-sulfonamide] the same measures were 2.5, 5.4, 8.30, 8.40 and 32 ×10⁻⁶ cm/s.
For `Cc1c(Nc2c(F)ccc(NS(=O)(=O)N3CC(COC(F)F)C3)c2Cl)ccc2ncn(C)c(=O)c12` [Example 137, N-(2-chloro-3-((3,5-dimethyl-4-oxo-3,4-dihydroquinazolin-6-yl)amino)-4-fluorophenyl)-3-((difluoromethoxy)methyl)azetidine-1-sulfonamide trifluoroacetate] the same measures were 2, 1.5, 7.43, 8.10 and 36 ×10⁻⁶ cm/s.
For `COCC1(C)CN(S(=O)(=O)Nc2ccc(F)c(Nc3ccc4ncn(C)c(=O)c4c3C)c2Cl)C1` [Example 140, N-(2-chloro-3-((3,5-dimethyl-4-oxo-3,4-dihydroquinazolin-6-yl)amino)-4-fluorophenyl)-3-(methoxymethyl)-3-methylazetidine-1-sulfonamide trifluoroacetate], the efflux ratio at 2 h, 1 µM in data set [1] was 1.2; in data set [3], 0.8. For the same compound, the pIC50 in data set [2] is 7.28; in data set [4], 7.80. For the same compound, the Papp at 2 h, 1 µM in data set [5] came out at 48 ×10⁻⁶ cm/s.
With `CCOC1CN(S(=O)(=O)Nc2ccc(F)c(Nc3ccc4ncn(C)c(=O)c4c3Cl)c2Cl)C1` [Example 141, N-(2-chloro-3-((5-chloro-3-methyl-4-oxo-3,4-dihydroquinazolin-6-yl)amino)-4-fluorophenyl)-3-ethoxyazetidine-1-sulfonamide], the efflux ratio at 2 h, 1 µM in data set [1] turned out to be 1.7; in data set [3], 2.2. In addition, the negative-log IC50 (pIC50) in data set [2] was 7.64; in data set [4] it was 7.70. In data set [5], this compound showed a Papp at 2 h, 1 µM of 29 ×10⁻⁶ cm/s.
For `CCOC1CN(S(=O)(=O)Nc2ccc(F)c(Nc3ccc4ncn(C)c(=O)c4c3F)c2Cl)C1` [Example 142, N-(2-chloro-4-fluoro-3-((5-fluoro-3-methyl-4-oxo-3,4-dihydroquinazolin-6-yl)amino)phenyl)-3-ethoxyazetidine-1-sulfonamide] the same measures were 3.2, 2.5, 7.70, 7.62 and 21 ×10⁻⁶ cm/s.
The matching figures for `COCC1(F)CN(S(=O)(=O)Nc2ccc(F)c(Nc3ccc4ncn(C)c(=O)c4c3C)c2Cl)C1` [Example 145, N-(2-chloro-3-((3,5-dimethyl-4-oxo-3,4-dihydroquinazolin-6-yl)amino)-4-fluorophenyl)-3-fluoro-3-(methoxymethyl)azetidine-1-sulfonamide trifluoroacetate]: 2.6, 2.4, 7.60, 8.22 and 29 ×10⁻⁶ cm/s.
For `Cn1cnc2ccc(Nc3c(F)ccc(NS(=O)(=O)N4CC5(CCC5)C4)c3Cl)c(Cl)c2c1=O` [Example 158, N-(2-chloro-3-((5-chloro-3-methyl-4-oxo-3,4-dihydroquinazolin-6-yl)amino)-4-fluorophenyl)-2-azaspiro[3.3]heptane-2-sulfonamide trifluoroacetate] the same measures were 1.5, 1.1, 6.81, 8.10 and 26 ×10⁻⁶ cm/s.
Take `Cn1cnc2ccc(Nc3c(F)ccc(NS(=O)(=O)N4CC5(CCC5)C4)c3Cl)c(F)c2c1=O` [Example 159, N-(2-chloro-4-fluoro-3-((5-fluoro-3-methyl-4-oxo-3,4-dihydroquinazolin-6-yl)amino)phenyl)-2-azaspiro[3.3]heptane-2-sulfonamide trifluoroacetate]: the values for the efflux ratio at 2 h, 1 µM in data set [1] and in data set [3] were 1.8 and 1.1, respectively. Moreover, the figures for the pIC50 in data set [2] and in data set [4] were 7.05 and 8.10, respectively. For the same compound, in data set [5], the Papp at 2 h, 1 µM was 33 ×10⁻⁶ cm/s.
On to `CCOC1CN(S(=O)(=O)Nc2ccc(F)c(Nc3ccc4ncn(C)c(=O)c4c3C)c2Cl)C1` [Example 160, N-(2-chloro-3-((3,5-dimethyl-4-oxo-3,4-dihydroquinazolin-6-yl)amino)-4-fluorophenyl)-3-ethoxyazetidine-1-sulfonamide], for which the efflux ratio at 2 h, 1 µM in data set [1] and in data set [3] was 1.3 in each case. Also, the values for the pIC50 in data set [2] and in data set [4] were 7.06 and 7.48, respectively. In data set [5], this compound had a Papp at 2 h, 1 µM of 38 ×10⁻⁶ cm/s.

For the origin of these results see patent US12303509B2, “Compounds for the treatment of BRAF-associated diseases and disorders” (Pfizer Inc., priority 2020, dated 2025).
